Data: US20240190831A1, “TRANSTHYRETIN STABILIZING COMPOUNDS” (Protego Biopharma, Inc., priority 2021, published 2024)
Structures can show the parent of a compound that is named as a salt.

Assay: In vitro rat liver S9 stability assay (formation of tafamidis)
Assay type: in vitro ADME
Settings: rat liver S9, 1 μM test compound, 37° C.
Protocol: A stability assay in liver S9 (rat or human) was used to evaluate the ability of a compound provided herein to convert to an active TTR stabilizer. The test compound was added to liver S9 and incubated at 37° C. in a water bath at a concentration of 1 μM. At each time point (0, 5, 10, 20, 30 and 60 min), stop solution (tolbutamide plus labetalol) was added to precipitate protein and mixed thoroughly. After centrifugation, an aliquot of supernatant was analyzed by LC-MS/MS. The percentage of formation of active agent was calculated at each time point.

Question: For O=C(N[C@@H]1CCC[C@@H]1O)c1ccc2nc(-c3cc(Cl)cc(Cl)c3)oc2c1 (relative stereo) [Compound 28, 2-(3,5-dichlorophenyl)-N-((cis)-2-hydroxycyclopentyl)benzo-[d]oxazole-6-carboxamide], which “Formation of tafamidis at 60 min” value is on record?
Answer: A (A is <25%)

Question: With O=C(N[C@@H]1CCC[C@H]1O)c1ccc2nc(-c3cc(Cl)cc(Cl)c3)oc2c1 (relative stereo) [Compound 29, 2-(3,5-dichlorophenyl)-N-((trans)-2-hydroxycyclopentyl)benzo-[d]oxazole-6-carboxamide] as the molecule, how does the “Formation of tafamidis at 60 min” value read?
Answer: A (A is <25%)

Question: Which “Formation of tafamidis at 60 min” value does the source give for O=C(N[C@@H]1CC[C@H](O)C1)c1ccc2nc(-c3cc(Cl)cc(Cl)c3)oc2c1 (relative stereo) [Compound 30, 2-(3,5-dichlorophenyl)-N-((cis)-3-hydroxycyclopentyl)benzo-[d]oxazole-6-carboxamide] here?
Answer: A (A is <25%)

Question: For O=C(N[C@@H]1CC[C@@H](O)C1)c1ccc2nc(-c3cc(Cl)cc(Cl)c3)oc2c1 (relative stereo) [Compound 31, 2-(3,5-dichlorophenyl)-N-((trans)-3-hydroxycyclopentyl)benzo-[d]oxazole-6-carboxamide], which “Formation of tafamidis at 60 min” value is on record?
Answer: A (A is <25%)

Question: Which “Formation of tafamidis at 60 min” value does the source give for O=C(N[C@@H]1CCCC[C@@H]1O)c1ccc2nc(-c3cc(Cl)cc(Cl)c3)oc2c1 (relative stereo) [Compound 32, 2-(3,5-dichlorophenyl)-N-((cis)-2-hydroxycyclohexyl)benzo-[d]oxazole-6-carboxamide] here?
Answer: A (A is <25%)

Question: With O=C(N[C@@H]1CCCC[C@H]1O)c1ccc2nc(-c3cc(Cl)cc(Cl)c3)oc2c1 (relative stereo) [Compound 33, 2-(3,5-dichlorophenyl)-N-((trans)-2-hydroxycyclohexyl)benzo-[d]oxazole-6-carboxamide] as the molecule, how does the “Formation of tafamidis at 60 min” value read?
Answer: A (A is <25%)

Question: For CN(C)[C@H]1CC[C@@H](OC(=O)c2ccc3nc(-c4cc(Cl)cc(Cl)c4)oc3c2)C1 (relative stereo) [Compound 46, Cis-3-(dimethylamino)cyclopentyl 2-(3,5-dichlorophenyl)benzo-[d]oxazole-6-carboxylate—HCl salt], which “Formation of tafamidis at 60 min” value is on record?
Answer: A (A is <25%)

Question: With CN(C)[C@@H]1CC[C@@H](OC(=O)c2ccc3nc(-c4cc(Cl)cc(Cl)c4)oc3c2)C1 (relative stereo) [Compound 47, Trans-3-(dimethylamino)cyclopentyl 2-(3,5-dichlorophenyl)benzo-[d]oxazole-6-carboxylate—HCl salt] as the molecule, how does the “Formation of tafamidis at 60 min” value read?
Answer: A (A is <25%)

Question: For O=C(O[C@H]1CCN2CCC[C@H]12)c1ccc2nc(-c3cc(Cl)cc(Cl)c3)oc2c1 (relative stereo) [Compound 58, (cis)-hexahydro-1H-pyrrolizin-1-yl 2-(3,5-dichlorophenyl)benzo[d]oxazole-6-carboxylate], which “Formation of tafamidis at 60 min” value is on record?
Answer: A (A is <25%)

Question: For O=C(O[C@H]1CCN2CCC[C@@H]12)c1ccc2nc(-c3cc(Cl)cc(Cl)c3)oc2c1 (relative stereo) [Compound 59, (trans)-hexahydro-1H-pyrrolizin-1-yl 2-(3,5-dichlorophenyl)benzo[d]oxazole-6-carboxylate], which “Formation of tafamidis at 60 min” value is on record?
Answer: A (A is <25%)

Question: Which “Formation of tafamidis at 60 min” value does the source give for CC(CO)OC(=O)c1ccc2nc(-c3cc(Cl)cc(Cl)c3)oc2c1 (single isomer, unassigned) [Compound 43, 1-hydroxypropan-2-yl 2-(3,5-dichlorophenyl) benzo[d]oxazole-6-carboxylate] here?
Answer: C (C is ≥50 to <75%)

Question: Which “Formation of tafamidis at 60 min” value does the source give for CC(CO)OC(=O)c1ccc2nc(-c3cc(Cl)cc(Cl)c3)oc2c1 (single isomer, unassigned) [Compound 44, 1-hydroxypropan-2-yl 2-(3,5-dichlorophenyl) benzo[d]oxazole-6-carboxylate] here?
Answer: C (C is ≥50 to <75%)

Question: For O=C(O[C@H]1CCCN2CCC[C@H]12)c1ccc2nc(-c3cc(Cl)cc(Cl)c3)oc2c1 (single isomer, unassigned) [Compound 69, Octahydroindolizin-8-yl 2-(3,5-dichlorophenyl)benzo[d]oxazole-6-carboxylate], which “Formation of tafamidis at 60 min” value is on record?
Answer: A (A is <25%)

Question: For O=C(O[C@H]1CCCN2CCC[C@@H]12)c1ccc2nc(-c3cc(Cl)cc(Cl)c3)oc2c1 (single isomer, unassigned) [Compound 70, Octahydroindolizin-8-yl 2-(3,5-dichlorophenyl)benzo[d]oxazole-6-carboxylate], which “Formation of tafamidis at 60 min” value is on record?
Answer: A (A is <25%)

Question: With O=C(O[C@H]1CCCN2CCCC[C@H]12)c1ccc2nc(-c3cc(Cl)cc(Cl)c3)oc2c1 (single isomer, unassigned) [Compound 71, Octahydro-1H-quinolizin-1-yl 2-(3,5-dichlorophenyl)benzo[d]oxazole-6-carboxylate] as the molecule, how does the “Formation of tafamidis at 60 min” value read?
Answer: B (B is ≥25 to <50%)

Question: Which “Formation of tafamidis at 60 min” value does the source give for O=C(O[C@H]1CCCN2CCCC[C@@H]12)c1ccc2nc(-c3cc(Cl)cc(Cl)c3)oc2c1 (single isomer, unassigned) [Compound 72, Octahydro-1H-quinolizin-1-yl 2-(3,5-dichlorophenyl)benzo[d]oxazole-6-carboxylate] here?
Answer: A (A is <25%)

Question: With CC(F)(F)CNC(=O)c1ccc2nc(-c3cc(Cl)cc(Cl)c3)oc2c1 [Compound 1, 2-(3,5-dichlorophenyl)-N-(2,2-difluoropropyl)benzo[d]oxazole-6-carboxamide] as the molecule, how does the “Formation of tafamidis at 60 min” value read?
Answer: A (A is <25%)

Question: With CC(NC(=O)c1ccc2nc(-c3cc(Cl)cc(Cl)c3)oc2c1)C(F)F (centres unmarked) [Compound 2, 2-(3,5-dichlorophenyl)-N-(1,1-difluoropropan-2-yl)benzo[d]oxazole-6-carboxamide] as the molecule, how does the “Formation of tafamidis at 60 min” value read?
Answer: A (A is <25%)

Question: For O=C(NCC(F)(F)C(F)(F)F)c1ccc2nc(-c3cc(Cl)cc(Cl)c3)oc2c1 [Compound 3, 2-(3,5-dichlorophenyl)-N-(2,2,3,3,3-pentafluoropropyl)benzo[d]oxazole-6-carboxamide], which “Formation of tafamidis at 60 min” value is on record?
Answer: A (A is <25%)

Question: Which “Formation of tafamidis at 60 min” value does the source give for NC(=O)c1ccc2nc(-c3cc(Cl)cc(Cl)c3)oc2c1 [Compound 4, 2-(3,5-dichlorophenyl)benzo[d]oxazole-6-carboxamide] here?
Answer: A (A is <25%)

Question: Which “Formation of tafamidis at 60 min” value does the source give for N#CCNC(=O)c1ccc2nc(-c3cc(Cl)cc(Cl)c3)oc2c1 [Compound 5, N-(cyanomethyl)-2-(3,5-dichlorophenyl)benzo[d]oxazole-6-carboxamide] here?
Answer: A (A is <25%)

Question: For COCCNC(=O)c1ccc2nc(-c3cc(Cl)cc(Cl)c3)oc2c1 [Compound 6, 2-(3,5-dichlorophenyl)-N-(2-methoxyethyl)benzo[d]oxazole-6-carboxamide], which “Formation of tafamidis at 60 min” value is on record?
Answer: A (A is <25%)

Question: Which “Formation of tafamidis at 60 min” value does the source give for CN(C)CCN(C)C(=O)c1ccc2nc(-c3cc(Cl)cc(Cl)c3)oc2c1 [Compound 8, 2-(3,5-dichlorophenyl)-N-(2-(dimethylamino)ethyl)-N-methylbenzo[d]oxazole-6-carboxamide] here?
Answer: A (A is <25%)

Question: Which “Formation of tafamidis at 60 min” value does the source give for CNCCNC(=O)c1ccc2nc(-c3cc(Cl)cc(Cl)c3)oc2c1 [Compound 9, 2-(3,5-dichlorophenyl)-N-(2-(methylamino)ethyl)benzo[d]oxazole-6-carboxamide hydrochloride] here?
Answer: A (A is <25%)

Question: Which “Formation of tafamidis at 60 min” value does the source give for CC(CO)NC(=O)c1ccc2nc(-c3cc(Cl)cc(Cl)c3)oc2c1 (centres unmarked) [Compound 10, 2-(3,5-dichlorophenyl)-N-(1-hydroxypropan-2-yl)benzo[d]oxazole-6-carboxamide] here?
Answer: A (A is <25%)

Question: Which “Formation of tafamidis at 60 min” value does the source give for CC(O)CNC(=O)c1ccc2nc(-c3cc(Cl)cc(Cl)c3)oc2c1 (centres unmarked) [Compound 11, 2-(3,5-dichlorophenyl)-N-(2-hydroxypropyl)benzo[d]oxazole-6-carboxamide] here?
Answer: A (A is <25%)

Question: With O=C(NC1CC1(F)F)c1ccc2nc(-c3cc(Cl)cc(Cl)c3)oc2c1 (centres unmarked) [Compound 12, 2-(3,5-dichlorophenyl)-N-(2,2-difluorocyclopropyl)benzo[d]-oxazole-6-carboxamide] as the molecule, how does the “Formation of tafamidis at 60 min” value read?
Answer: A (A is <25%)

Question: With O=C(NC1CCCCC1(F)F)c1ccc2nc(-c3cc(Cl)cc(Cl)c3)oc2c1 (centres unmarked) [Compound 13, 2-(3,5-dichlorophenyl)-N-(2,2-difluorocyclohexyl)benzo[d]oxazole-6-carboxamide] as the molecule, how does the “Formation of tafamidis at 60 min” value read?
Answer: A (A is <25%)

Question: Which “Formation of tafamidis at 60 min” value does the source give for O=C(NC1CCCC(F)(F)C1)c1ccc2nc(-c3cc(Cl)cc(Cl)c3)oc2c1 (centres unmarked) [Compound 14, 2-(3,5-dichlorophenyl)-N-(3,3-difluorocyclohexyl)benzo[d]oxazole-6-carboxamide] here?
Answer: A (A is <25%)

Question: With O=C(NC1CCC(F)(F)CC1)c1ccc2nc(-c3cc(Cl)cc(Cl)c3)oc2c1 [Compound 15, 2-(3,5-dichlorophenyl)-N-(4,4-difluorocyclohexyl)benzo[d]oxazole-6-carboxamide] as the molecule, how does the “Formation of tafamidis at 60 min” value read?
Answer: A (A is <25%)

Question: Which “Formation of tafamidis at 60 min” value does the source give for O=C(NC1COC1)c1ccc2nc(-c3cc(Cl)cc(Cl)c3)oc2c1 [Compound 16, 2-(3,5-dichlorophenyl)-N-(oxetan-3-yl)benzo[d]oxazole-6-carboxamide] here?
Answer: A (A is <25%)

Question: With O=C(NC1CCOC1)c1ccc2nc(-c3cc(Cl)cc(Cl)c3)oc2c1 (centres unmarked) [Compound 17, 2-(3,5-dichlorophenyl)-N-(tetrahydrofuran-3-yl)benzo[d]oxazole-6-carboxamide] as the molecule, how does the “Formation of tafamidis at 60 min” value read?
Answer: A (A is <25%)

Question: Which “Formation of tafamidis at 60 min” value does the source give for O=C(NC1CCC1)c1ccc2nc(-c3cc(Cl)cc(Cl)c3)oc2c1 [Compound 18, N-cyclobutyl-2-(3,5-dichlorophenyl)benzo[d]oxazole-6-carboxamide] here?
Answer: A (A is <25%)

Question: For O=C(NC1CCCC1)c1ccc2nc(-c3cc(Cl)cc(Cl)c3)oc2c1 [Compound 19, N-cyclopentyl-2-(3,5-dichlorophenyl)benzo[d]oxazole-6-carboxamide], which “Formation of tafamidis at 60 min” value is on record?
Answer: A (A is <25%)

Question: With O=C(NC1CC1)c1ccc2nc(-c3cc(Cl)cc(Cl)c3)oc2c1 [Compound 20, N-cyclopropyl-2-(3,5-dichlorophenyl)benzo[d]oxazole-6-carboxamide] as the molecule, how does the “Formation of tafamidis at 60 min” value read?
Answer: A (A is <25%)
